Laboratory results: PubChem BioAssay (NCI)
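Assay format: 96-well plates, 48-hour exposure. GI50 is the concentration that inhibits growth by half. TGI: concentration producing complete growth inhibition.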

How the values were obtained:
Experiment in all cases: NCI-60 cell line screen, 48 h
NCI/ADR-RES ovarian = test system: NCI/ADR-RES ovarian
NCI-H522 lung = test system: NCI-H522 lung
SF-268 CNS = test system: SF-268 CNS
HCT-116 colon = test system: HCT-116 colon
SF-295 CNS = test system: SF-295 CNS
COLO 205 colon = test system: COLO 205 colon
PC-3 prostate = test system: PC-3 prostate
HOP-92 NSCLC = test system: HOP-92 NSCLC
NCI-H226 lung = test system: NCI-H226 lung
DU-145 prostate = test system: DU-145 prostate
RPMI-8226 leukemia = test system: RPMI-8226 leukemia
LOX IMVI melanoma = test system: LOX IMVI melanoma
HL-60(TB) leukemia = test system: HL-60(TB) leukemia
U251 CNS = test system: U251 CNS
MCF7 breast = test system: MCF7 breast
MOLT-4 leukemia = test system: MOLT-4 leukemia
A498 renal = test system: A498 renal
SK-MEL-2 melanoma = test system: SK-MEL-2 melanoma
M14 melanoma = test system: M14 melanoma
HT29 colon = test system: HT29 colon
HCC-2998 colon = test system: HCC-2998 colon
IGROV1 ovarian = test system: IGROV1 ovarian
CAKI-1 renal = test system: CAKI-1 renal
SR leukemia = test system: SR leukemia
OVCAR-4 ovarian = test system: OVCAR-4 ovarian
MDA-MB-435 = test system: MDA-MB-435
EKVX NSCLC = test system: EKVX NSCLC
SNB-19 CNS = test system: SNB-19 CNS
HCT-15 colon = test system: HCT-15 colon
SF-539 CNS = test system: SF-539 CNS
OVCAR-5 ovarian = test system: OVCAR-5 ovarian
SW-620 colon = test system: SW-620 colon
OVCAR-3 ovarian = test system: OVCAR-3 ovarian
SN12C renal = test system: SN12C renal
A549 NSCLC = test system: A549 NSCLC
UACC-257 melanoma = test system: UACC-257 melanoma
RXF 393 renal = test system: RXF 393 renal
KM12 colon = test system: KM12 colon
NCI-H460 lung = test system: NCI-H460 lung
TK-10 renal = test system: TK-10 renal
CCRF-CEM leukemia = test system: CCRF-CEM leukemia
OVCAR-8 ovarian = test system: OVCAR-8 ovarian
K-562 leukemia = test system: K-562 leukemia
NCI-H23 lung = test system: NCI-H23 lung
ACHN renal = test system: ACHN renal
UO-31 renal = test system: UO-31 renal
SK-MEL-5 melanoma = test system: SK-MEL-5 melanoma
MDA-MB-231 breast = test system: MDA-MB-231 breast
T-47D breast = test system: T-47D breast
SK-MEL-28 melanoma = test system: SK-MEL-28 melanoma
786-0 renal = test system: 786-0 renal
BT-549 breast = test system: BT-549 breast
SK-OV-3 ovarian = test system: SK-OV-3 ovarian
HS 578T breast = test system: HS 578T breast
SNB-75 CNS = test system: SNB-75 CNS
HOP-62 NSCLC = test system: HOP-62 NSCLC
UACC-62 melanoma = test system: UACC-62 melanoma

C=C(C)C(=O)Oc1ccc(N=Nc2ccc(C)cc2)ccc1=O
GI50 (NCI/ADR-RES ovarian): 3.14 µM | TGI (NCI/ADR-RES ovarian): 11.4 µM | GI50 (NCI-H522 lung): 4.95 µM | TGI (NCI-H522 lung): 18.1 µM | GI50 (SF-268 CNS): 2.62 µM | TGI (SF-268 CNS): 11.2 µM | GI50 (HCT-116 colon): 2.98 µM | TGI (HCT-116 colon): 10.5 µM | GI50 (SF-295 CNS): 1.66 µM | TGI (SF-295 CNS): 4.66 µM | GI50 (COLO 205 colon): 3.58 µM | TGI (COLO 205 colon): 14.6 µM | GI50 (PC-3 prostate): 5.54 µM | TGI (PC-3 prostate): 24.4 µM | GI50 (HOP-92 NSCLC): 3.64 µM | TGI (HOP-92 NSCLC): 16.1 µM | GI50 (NCI-H226 lung): 3.57 µM | TGI (NCI-H226 lung): 18.6 µM | GI50 (DU-145 prostate): 4.36 µM | TGI (DU-145 prostate): 15.8 µM | GI50 (RPMI-8226 leukemia): 3.73 µM | TGI (RPMI-8226 leukemia): 17.8 µM | GI50 (LOX IMVI melanoma): 2.72 µM | TGI (LOX IMVI melanoma): 11.4 µM | GI50 (HL-60(TB) leukemia): 2.39 µM | TGI (HL-60(TB) leukemia): 7.04 µM | GI50 (U251 CNS): 3.11 µM | TGI (U251 CNS): 12.7 µM | GI50 (MCF7 breast): 3.66 µM | TGI (MCF7 breast): 14.7 µM | GI50 (MOLT-4 leukemia): 2.57 µM | TGI (MOLT-4 leukemia): 8.18 µM | GI50 (A498 renal): 3.72 µM | TGI (A498 renal): 14.6 µM | GI50 (SK-MEL-2 melanoma): 8.31 µM | TGI (SK-MEL-2 melanoma): 28.6 µM | GI50 (M14 melanoma): 3.21 µM | TGI (M14 melanoma): 12.7 µM | GI50 (HT29 colon): 4.28 µM | TGI (HT29 colon): 15.1 µM | GI50 (HCC-2998 colon): 3.74 µM | TGI (HCC-2998 colon): 14 µM | GI50 (IGROV1 ovarian): 2.54 µM | TGI (IGROV1 ovarian): 9.15 µM | GI50 (CAKI-1 renal): 2.26 µM | TGI (CAKI-1 renal): 5.6 µM | GI50 (SR leukemia): 2.47 µM | TGI (SR leukemia): 8.28 µM | GI50 (OVCAR-4 ovarian): 3.63 µM | TGI (OVCAR-4 ovarian): 14.4 µM | GI50 (MDA-MB-435): 2.77 µM | TGI (MDA-MB-435): 11.2 µM | GI50 (EKVX NSCLC): 2.32 µM | TGI (EKVX NSCLC): 8.76 µM | GI50 (SNB-19 CNS): 3.68 µM | TGI (SNB-19 CNS): 21.8 µM | GI50 (HCT-15 colon): 3.55 µM | TGI (HCT-15 colon): 18.5 µM | GI50 (SF-539 CNS): 5.17 µM | TGI (SF-539 CNS): 18.1 µM | GI50 (OVCAR-5 ovarian): 8.26 µM | TGI (OVCAR-5 ovarian): 21.8 µM | GI50 (SW-620 colon): 3.16 µM | TGI (SW-620 colon): 13.4 µM | GI50 (OVCAR-3 ovarian): 2.09 µM | TGI (OVCAR-3 ovarian): 8.13 µM | GI50 (SN12C renal): 3.89 µM | TGI (SN12C renal): 18.5 µM | GI50 (A549 NSCLC): 3.81 µM | TGI (A549 NSCLC): 18.3 µM | GI50 (UACC-257 melanoma): 2.99 µM | TGI (UACC-257 melanoma): 13 µM | GI50 (RXF 393 renal): 3.93 µM | TGI (RXF 393 renal): 14.8 µM | GI50 (KM12 colon): 3.51 µM | TGI (KM12 colon): 13.5 µM | GI50 (NCI-H460 lung): 2.85 µM | TGI (NCI-H460 lung): 10.2 µM | GI50 (TK-10 renal): 10.7 µM | TGI (TK-10 renal): 82.4 µM | GI50 (CCRF-CEM leukemia): 2.24 µM | TGI (CCRF-CEM leukemia): 9.36 µM | GI50 (OVCAR-8 ovarian): 3.15 µM | TGI (OVCAR-8 ovarian): 10.9 µM | GI50 (K-562 leukemia): 3.36 µM | TGI (K-562 leukemia): 13.6 µM | GI50 (NCI-H23 lung): 4.52 µM | TGI (NCI-H23 lung): 17.8 µM | GI50 (ACHN renal): 3.96 µM | TGI (ACHN renal): 15.8 µM | GI50 (UO-31 renal): 2.55 µM | TGI (UO-31 renal): 8.38 µM | GI50 (SK-MEL-5 melanoma): 4 µM | TGI (SK-MEL-5 melanoma): 15.2 µM | GI50 (MDA-MB-231 breast): 4.84 µM | TGI (MDA-MB-231 breast): 22 µM | GI50 (T-47D breast): 3.14 µM | TGI (T-47D breast): 14.7 µM | GI50 (SK-MEL-28 melanoma): 3.39 µM | TGI (SK-MEL-28 melanoma): 11.7 µM | GI50 (786-0 renal): 4.96 µM | TGI (786-0 renal): 17.8 µM | GI50 (BT-549 breast): 6.63 µM | TGI (BT-549 breast): 21.3 µM | GI50 (SK-OV-3 ovarian): 4.72 µM | TGI (SK-OV-3 ovarian): 27.7 µM | GI50 (HS 578T breast): 4.33 µM | TGI (HS 578T breast): 24.3 µM | GI50 (SNB-75 CNS): 2.66 µM | TGI (SNB-75 CNS): 10.3 µM | GI50 (HOP-62 NSCLC): 3.78 µM | TGI (HOP-62 NSCLC): 14.9 µM | GI50 (UACC-62 melanoma): 1.95 µM | TGI (UACC-62 melanoma): 4.42 µM
